Measured values as given in patent US12268727B2, “Bioactive polypeptides for improvements in plant protection, growth and productivity” (priority 2017, dated 2025).
Read-outs that look alike come from different tables or passages of the source.

Legend:
soybean [1] = assay: Seed treatment of soybean, field yield trials; format: in vivo; settings: for Average Yield Bu/Ac / Average Change in Bu/Ac compared to Untreated Control: seed treatment on base ST; for Average Yield Bu/Ac: 1 variety, 1 location, four replicate plots
Cercospora kikuchii = assay: Cercospora leaf blight severity, field trials in Paraguay; format: in vivo; settings: two foliar applications from R1, 150 and 300 mL/Ha
Experimental: FOX is a commercially available foliar fungicide in South America with limited efficacy for preventative and curative treatment of Asian soybean rust caused by Phakopsora pachyrhizi and Cercospora leaf blight of soybean caused by Cercospora kikuchii applied as a foliar spray following the recommendations on the specimen label at a use rate of 5.48 fluid ounces per acre (Fl. oz/Ac) (400 mL/hectare). Beginning at the R1 stage of development, soybean plants received two foliar applications of the compositions described in Table 90 with an interval of 13-14 days between spray applications. […] Disease assessments for trials that were naturally infected were scored for the severity of infection (0-100% of foliage affected) were scored for 10 plants within each plot for both Asian soybean rust caused by Phakopsora pachyrhizi and Cercospora leaf blight of soybean caused by Cercospora kikuchii at the R4-R5 stage of soy development (4-15 days after second foliar application) with guidance from Godoy et al (1997; Journal of plant diseases and protection 104:336-345). Percent phytotoxicity (0-100% of foliage affected) was also scored at the R4-R5 stage of soy development. […] Standard deviation for each treatment between the three sites was calculated. […]

Cercospora brassicicola = assay: White leaf spot on kale, disease score and plant weight; format: in vivo
Experimental: The infected kale plants had received no previous foliar treatments for fungal disease prevention. […] A single person scored all the plants within the trial area, and then evenly distributed the plants by disease score between the treatments in Table 64, with 6 replicated blocks of 6 plants per treatment (total=36 plants per treatment). […] Three weeks after foliar treatments, the plants were scored used the same disease severity rubric. The change in disease score was calculated for each plant, and the average change in disease score was determined per treatment. Plants were harvested four days after assessing disease severity, and yield was measured as plant weight (grams). Outlying values with weights that were either 50% below or 50% above the median weight for the trial were excluded from the dataset.

citrus trees = settings: for Flush length (% of control) / Average Flush Length (inches): injected April 2017, measured May 2018; for more new branch growth than untreated control: orange
[2] = system: reactive oxygen species (ROS) production in soybean leaf tissue; assay: ROS activity assay in soybean leaf tissue (luminol/horseradish peroxidase, RLU); format: cell-based; settings: for Fold increase over negative control: vs mock (water)
[3] = system: reactive oxygen species (ROS) production in Arabidopsis leaf tissue; assay: ROS activity assay in Arabidopsis leaf tissue; format: cell-based, Arabidopsis thaliana; settings: 100 nM each polypeptide, negative control (water) 82896
Experimental: Elf18 and Elf26 polypeptides derived from the consensus Bacillus cereus Elongation Factor-TU (EF-Tu) protein were tested for ability to produce a ROS response in corn (hybrid 5828 YX), soy (variety Morsoy), and Arabidopsis thaliana. Polypeptides were synthesized by Genscript USA (Piscataway, N.J.) using standard solid-phase synthesis methods and provided as a lyophilized powder with greater than or equal to 70% purity. Dry powder was re-suspended to a concentration of 10 mM in ultrapure water, and then serially diluted in ultrapure water to the concentrations tested in the ROS assay in Table 98.
For the ROS assay, Arabidopsis leaves were excised from 4-week-old plants, and using a cork borer 4 mm disks were removed from the leaves. Each disc was cut in half using the edge of a razor blade, and then each disc half was floated on 150 μL of water abaxial side touching the water in a 96-well plate to rest overnight. The next day, the water was removed from each well just prior to polypeptide treatment. RLU values and relative ROS activity was reported as the average of 4 measurements.

soybean [4] = assay: Soybean nodulation, root biomass and total biomass after foliar application; format: in vivo
Experimental: Effective nodulation of soybean roots result in higher yields and higher quality seed production, protein and oil per seed or acre basis. This could be due to increased nitrogen fixation since nodulale formation increases nitrogen fixation. To determine whether root hair promoting bioactive priming polypeptide, RHPP (SEQ ID NO: 600) could modulate root biomass and nodulation and thereby improve nitrogen fixation, soybean plants (hybrid Morsoy 38X52 and Beck's hybrid 297R4) were treated with foliar application of RHPP (300 nM) at the R1-R2 stage of development.
RHPP bioactive priming polypeptide (SEQ ID NO: 600, originally derived from Glycine max) was applied as foliar treatment to 4-week-old hybrid soybean (Morsoy variety) with 0.1% (v/v) non-ionic surfactant ([…] SURFACE™) using a spray bottle and delivering approximately 1.25 ml/plant. The experiment was conducted using a total of 8 plants per trial per treatment group. […] Growth parameters of nodule counts, root biomass and total biomass per plant were measured at 15 days post the foliar application and compared between the foliar treatments consisting of […] SURFACE surfactant (0.1% v/v) as a control and the RHPP polypeptide (300 nM) containing the […] SURFACE surfactant (0.1% v/v). Average growth parameters as described were normalized to the control plants that received the surfactant alone treatment (Table 38).

[5] = polypeptide 0.25 μM (cellobiose 1 mM where combined)
[6] = polypeptide 1.0 μM (cellobiose 1 mM where combined)
[7] = soybean leaf tissue, Bt.4Q7Flg22 52.2 nM without surfactant
[8] = soybean leaves, Bt.4Q7Flg22 100 nM, No PROXEL Preservative Added
[9] = 300 nM + 0.1% v/v ALLIGARE SURFACE, Morsoy soybean, 15 days post application
[10] = 300 nM + 0.1% v/v ALLIGARE SURFACE, Morsoy soybean, 15 days post foliar application, n = 8
[11] = 300 nM, Morsoy, 15 days post application

Bt.4Q7Flg22: Flg22 polypeptide (22 amino acids) from flagellin of Bacillus thuringiensis strain 4Q7 (DRLSSGKRINSASDDAAGLAIA; listed as Bacillus thuringiensis)
average yield increase over base seed treatment (soybean [1]; 1.0 μM, 0.14 Fl. oz per unit, Columbia Mo., 4 replicate plots): 5.11 Bu/Ac | Average Yield Bu/Ac (soybean [1]; [5]): 43.80 Bu/Ac | Average Yield Bu/Ac (soybean [1]; [6]): 46.22 Bu/Ac | Average Change in Bu/Ac compared to Untreated Control (soybean [1]; [5]): +2.69 Bu/Ac | Average Change in Bu/Ac compared to Untreated Control (soybean [1]; [6]): +5.11 Bu/Ac | win rate (soybean [1]; third study, 12 locations): 64% | yield benefit (soybean [1]; third study, 12 locations): 1.3 Bu/Ac | less Cercospora leaf area damage than untreated control (Cercospora kikuchii): 2.8-3.5% | Average Change in Disease Score (Cercospora brassicicola; improvement on the 1-5 scale, surfactant only control 0.6 point improvement): 1.1 point | average plant weight (Cercospora brassicicola; infected kale, harvested about 3.5 weeks after foliar treatment): 15.1 g | Yield (Average plant weight in grams) (Cercospora brassicicola; infected kale, Bt.4Q7Flg22 100 μM 12.0 Fl. oz/Ac, Liquid Copper Fungicide label rate 54.45 Fl oz/Ac): 15.1 grams | Yield Relative to control (%) (Cercospora brassicicola; infected kale, surfactant only control 100%, Bt.4Q7Flg22 12.0 Fl. oz/Ac, copper fungicide 54.45 Fl oz/Ac): (103%) | average improvement in disease scoring over control (1-5 rubric) (Cercospora brassicicola; three weeks after foliar treatment): 0.5 points | phytotoxicity after trunk injection (citrus trees; 1× or 10× rate): no phytotoxicity occurred | average new shoot length (citrus trees; Hamlin and Vernia orange, trunk injection, two months after treatment): 3.84 inches | shoot length vs untreated control (printed as % longer) (citrus trees; Hamlin and Vernia orange, two months after trunk injection or foliar spray): 25% | Flush length (% of control) (citrus trees; Red Grapefruit, 1X, 0.138 μM): 135% | Average Flush Length (inches) (citrus trees; Red Grapefruit, 1X, 0.138 μM, control 8.05): 10.83 inches | Flush length (% of control) (citrus trees; Red Grapefruit, 10X, 1.38 μM): 113% | Average Flush Length (inches) (citrus trees; Red Grapefruit, 10X, 1.38 μM, control 8.05): 9.13 inches | Flush length (% of control) (citrus trees; Valencia Orange, 1X, 0.138 μM): 184% | Average Flush Length (inches) (citrus trees; Valencia Orange, 1X, 0.138 μM, control 7.23): 13.33 inches | Flush length (% of control) (citrus trees; Valencia Orange, 10X, 1.38 μM): 170% | Average Flush Length (inches) (citrus trees; Valencia Orange, 10X, 1.38 μM, control 7.23): 12.29 inches | more new branch growth than untreated control (citrus trees; 1× injection): 85% | more new branch growth than untreated control (citrus trees; 1× injection April 2017, measured May 2018): 6.1 inches | fold-increase in ROS production over mock-treated control ([2]; 52.2 nM Bt.4Q7Flg22, NIS90:10 0.25% or 0.5% v/v, Silwet-L77 0.025% or 0.1% v/v): 6.8 × | fold increase in RLU over mock treatment ([2]; 100 nM Bt.4Q7Flg22, Proxel compatibility test): 17.0 × | Avg. Activity (%) Soybean (297 R4) 100 nM polypeptide ([2]; Table 33, RLU relative to native Bt.4Q7Flg22 = 100): 100% | Avg. Activity (%) Soybean (297 R4) 100 nM polypeptide ([2]; Table 35, single polypeptides and combinations, Bt.4Q7Flg22 = 100): 100% | relative ROS activity ([2]; soy leaf tissue, 10 nM): 0.04 × | Polypeptide Concentration (nM) for 5 × 10^4 total RLU production ([2]; soybean leaf discs, from best-fit regression, Table 72 data set): 31.4 nM | Average RLU values [2, 7]: 350503 RLU | Fold increase over negative control [2, 7]: (6.8X) | Average RLU values [2, 8]: 81887 RLU | Fold increase over negative control [2, 8]: (17.0X) | Average RLU value [3]: 258073 RLU

GGIRAAPTGNER (Glycine max) [RHPP, Root Hair Promoting Peptide from Glycine max]
win rate (soybean [1]; seed treatment, 11 sites): 73% | yield increase (soybean [1]; seed treatment, 11 sites): 1.2 bu/Ac | win rate (soybean [1]; third study, 12 locations): 64% | yield benefit (soybean [1]; third study, 12 locations): 0.4 Bu/Ac | Average nodule count per plant, RHPP treatment normalized as a percentage of the surfactant control (soybean [4]; [9]): 170.42% | Root biomass, RHPP treatment normalized as a percentage of the surfactant control (soybean [4]; [9]): 120.57% | Total biomass, RHPP treatment normalized as a percentage of the surfactant control (soybean [4]; [9]): 108.44% | Average nodule count per plant (soybean [4]; [10]): 15.13 | Root biomass (soybean [4]; [10]): 2.13 g | Total biomass (soybean [4]; [10]): 46.24 g | increase in root biomass normalized to control (soybean [4]; [11]): more than 20% | increase in total biomass normalized to control (soybean [4]; [11]): 8% | number of nodules per plant vs surfactant control (soybean [4]; [11]): approximately two times the number of nodules | less Cercospora leaf area damage than untreated control (Cercospora kikuchii): 3.3-4.5%
